The results in this text go back to PubChem BioAssay AID1259411 (Chemical Carcinogenesis Research Information System (CCRIS), 2018).

For the series, the system named is rodent carcinogenicity bioassays, tumor incidence. In words: CCRIS carcinogenicity studies. The following applies: Dose: 0, Dose: 0. In outline: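 NCI-built, expert-reviewed records of carcinogenicity and related test outcomes (mutagenicity, tumor promotion/inhibition) compiled from published and report sources, historical span 1985-2011, not updated.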

Calls of active or inactive are those of the source. No rule for the calls is given here.

Take `O=C1c2ccccc2C(=O)N1SC(Cl)(Cl)Cl`: the carcinogen call was “active; positive” (Species: MOUSE, Strain/Sex: B6C3F1/FEMALE, Route: ORAL, 1000, 5000, 10000 PPM IN DIET FOR 104 WK (STUDY DURATION: 104 WK), 1000, 5000, 10000 PPM IN DIET FOR 104 WK (STUDY DURATION: 104 WK), Tumor Site: Type of Lesion: DUODENUM: CARCINOMA OR ADENOMA); “active; positive” (Species: MOUSE, Strain/Sex: B6C3F1/MALE, Route: ORAL, 1000, 5000, 10000 PPM IN DIET FOR 104 WK (STUDY DURATION: 104 WK), 1000, 5000, 10000 PPM IN DIET FOR 104 WK (STUDY DURATION: 104 WK), Tumor Site: Type of Lesion: NON-GLANDULAR STOMACH: PAPILLOMA OR SQUAMOUS CELL CARCINOMA, DUODENUM: CARCINOMA OR ADENOMA); “active; positive” (Species: Mouse, Strain/Sex: B6C3F1/Female (52/Group), Route: Oral, 1000, 5000/3500, 10,000/7000 ppm (doses reduced at wk 21) of 88-89% folpet in diet for 2 yr, study duration 2 yr, 1000, 5000/3500, 10,000/7000 ppm (doses reduced at wk 21) of 88-89% folpet in diet for 2 yr, study duration 2 yr, Tumor Site: Type of Lesion: Stomach: papilloma and squamous cell carcinoma combined (2, 2, 5, 7). Duodenum: adenomas and carcinomas (1, 2, 10, 19).); “active; positive” (Species: Mouse, Strain/Sex: B6C3F1/Male (52/Group), Route: Oral, 1000, 5000/3500, 10,000/7000 ppm (doses reduced at wk 21) of 88-89% folpet in diet for 2 yr, study duration 2 yr, 1000, 5000/3500, 10,000/7000 ppm (doses reduced at wk 21) of 88-89% folpet in diet for 2 yr, study duration 2 yr, Tumor Site: Type of Lesion: Stomach: papilloma and squamous cell carcinoma combined (0, 2, 6, 3). Duodenum: adenomas and carcinomas (0, 4, 17, 25)); “inactive; negative” (Species: Rat, Strain/Sex: Strain not specified in Department of Pesticides Regulation report /Female (60/Group), Route: Oral, 200, 800, 3200 ppm of 89.5% folpet in diet for 105 wk, study duration 105 wk, 200, 800, 3200 ppm of 89.5% folpet in diet for 105 wk, study duration 105 wk); “inactive; negative. increased incidence of thyroid tumors judged by reviewers as equivocal” (Species: Rat, Strain/Sex: Strain not specified in Department of Pesticides Regulation report /Male (60/Group), Route: Oral, 200, 800, 3200 ppm of 89.5% folpet in diet for 105 wk, study duration 105 wk, 200, 800, 3200 ppm of 89.5% folpet in diet for 105 wk, study duration 105 wk).
In the case of `O=[O+][O-]`, the carcinogen call is “active; positive” (Species: MOUSE, Strain/Sex: B6C3F1/FEMALE, Route: INHALATION, 0.12, 0.5, 1 PPM 6 HR/D 5 D/WK FOR 105 WK (STUDY DURATION: 105 WK), 0.12, 0.5, 1 PPM 6 HR/D 5 D/WK FOR 105 WK (STUDY DURATION: 105 WK), Tumor Site: Type of Lesion: LUNG (ALVEOLAR/BRONCHIOLAR): ADENOMA OR CARCINOMA); “active; positive” (Species: MOUSE, Strain/Sex: B6C3F1/FEMALE, Route: INHALATION, 0.5, 1 PPM 6 HR/D 5 D/WK FOR 130 WK (STUDY DURATION: 130 WK), 0.5, 1 PPM 6 HR/D 5 D/WK FOR 130 WK (STUDY DURATION: 130 WK), Tumor Site: Type of Lesion: LUNG (ALVEOLAR/BRONCHIOLAR): ADENOMA); “equivocal” (Species: MOUSE, Strain/Sex: B6C3F1/MALE, Route: INHALATION, 0.12, 0.5, 1 PPM 6 HR/D 5 D/WK FOR 105 WK (STUDY DURATION: 105 WK), 0.12, 0.5, 1 PPM 6 HR/D 5 D/WK FOR 105 WK (STUDY DURATION: 105 WK), Tumor Site: Type of Lesion: LUNG: ALVEOLAR/BRONCHIOLAR ADENOMA OR CARCINOMA); “equivocal” (Species: MOUSE, Strain/Sex: B6C3F1/MALE, Route: INHALATION, 0.5, 1 PPM 6 HR/D 5 D/WK FOR 130 WK (STUDY DURATION: 130 WK), 0.5, 1 PPM 6 HR/D 5 D/WK FOR 130 WK (STUDY DURATION: 130 WK), Tumor Site: Type of Lesion: LUNG: ALVEOLAR/BRONCHIOLAR ADENOMA OR CARCINOMA); “inactive; negative” (Species: RAT, Strain/Sex: F344/FEMALE, Route: INHALATION, 0.12, 0.5, 1 PPM 6 HR/D 5 D/WK FOR 20 MO (STUDY DURATION: 20 MO), 0.12, 0.5, 1 PPM 6 HR/D 5 D/WK FOR 20 MO (STUDY DURATION: 20 MO)); “inactive; negative” (Species: RAT, Strain/Sex: F344/FEMALE, Route: INHALATION, 0.12, 0.5, 1 PPM 6 HR/D 5 D/WK FOR 105 WK (STUDY DURATION: 105 WK), 0.12, 0.5, 1 PPM 6 HR/D 5 D/WK FOR 105 WK (STUDY DURATION: 105 WK)). For the same compound, the carcinogen call by setting is: (Species: RAT, Strain/Sex: F344/FEMALE, Route: INHALATION, 0.5, 1 PPM 6 HR/D 5 D/WK FOR 125 WK (STUDY DURATION: 125 WK), 0.5, 1 PPM 6 HR/D 5 D/WK FOR 125 WK (STUDY DURATION: 125 WK)) “inactive; negative”; (Species: RAT, Strain/Sex: F344/MALE, Route: INHALATION, 0.12, 0.5, 1 PPM 6 HR/D 5 D/WK FOR 20 MO (STUDY DURATION: 20 MO), 0.12, 0.5, 1 PPM 6 HR/D 5 D/WK FOR 20 MO (STUDY DURATION: 20 MO)) “inactive; negative”; (Species: RAT, Strain/Sex: F344/MALE, Route: INHALATION, 0.12, 0.5, 1 PPM 6 HR/D 5 D/WK FOR 105 WK (STUDY DURATION: 105 WK), 0.12, 0.5, 1 PPM 6 HR/D 5 D/WK FOR 105 WK (STUDY DURATION: 105 WK)) “inactive; negative”; (Species: RAT, Strain/Sex: F344/MALE, Route: INHALATION, 0.5, 1 PPM 6 HR/D 5 D/WK FOR 125 WK (STUDY DURATION: 125 WK), 0.5, 1 PPM 6 HR/D 5 D/WK FOR 125 WK (STUDY DURATION: 125 WK)) “inactive; negative”.
On to `Cc1c2c(c(C)c3c1ccc1ccccc13)CCCC2`, for which, where the note is “Species: MOUSE, Strain/Sex: SWISS/FEMALE, Route: DERMAL, 41 UG IN ACETONE (0.2%) 2/WK FOR 65 WK FOR A TOTAL DOSE OF 0, 5.3 MG (STUDY DURATION: 80 WK), 41 UG IN ACETONE (0.2%) 2/WK FOR 65 WK FOR A TOTAL DOSE OF 0, 5.3 MG (STUDY DURATION: 80 WK), Tumor Site: Type of Lesion: SKIN: CARCINOMA, SKIN: PAPILLOMA”, the carcinogen call is “active; positive”.
For `CCn1cc(C(=O)O)c(=O)c2ccc(C)nc21`, the carcinogen call was “inactive; negative” (Species: MOUSE, Strain/Sex: B6C3F1/FEMALE, Route: ORAL, 2000, 4000 PPM IN FEED FOR 103 WK (STUDY DURATION: 104 WK), 2000, 4000 PPM IN FEED FOR 103 WK (STUDY DURATION: 104 WK)); “equivocal” (Species: MOUSE, Strain/Sex: B6C3F1/MALE, Route: ORAL, 2000, 4000 PPM IN FEED FOR 103 WK (STUDY DURATION: 104 WK), 2000, 4000 PPM IN FEED FOR 103 WK (STUDY DURATION: 104 WK), Tumor Site: Type of Lesion: INTEGUMENTARY SYSTEM (SUBCUTANEOUS TISSUE): FIBROMA OR FIBROSARCOMA); “active; positive” (Species: RAT, Strain/Sex: F344/FEMALE, Route: ORAL, 2000, 4000 PPM IN FEED FOR 103 WK (STUDY DURATION: 104 WK), 2000, 4000 PPM IN FEED FOR 103 WK (STUDY DURATION: 104 WK), Tumor Site: Type of Lesion: CLITORAL GLAND: ADENOMA, ADENOMA OR PAPILLOMA, ADENOMA OR PAPILLOMA OR CARCINOMA OR PAPILLARY CARCINOMA); “active; positive” (Species: RAT, Strain/Sex: F344/MALE, Route: ORAL, 2000, 4000 PPM IN FEED FOR 103 WK (STUDY DURATION: 104 WK), 2000, 4000 PPM IN FEED FOR 103 WK (STUDY DURATION: 104 WK), Tumor Site: Type of Lesion: PREPUTIAL GLAND: ADENOMA, ADENOMA OR PAPILLOMA, CARCINOMA).
Consider `Nc1ccc([N+](=O)[O-])cc1N`, for which the carcinogen call reads like this: (Species: MOUSE, Strain/Sex: B6C3F1/FEMALE, Route: ORAL, 3750, 7500 PPM IN DIET, 3750, 7500 PPM IN DIET) “inactive; negative”; (Species: MOUSE, Strain/Sex: B6C3F1/MALE, Route: ORAL, 3750, 7500 PPM IN DIET, 3750, 7500 PPM IN DIET) “inactive; negative”; (Species: RAT, Strain/Sex: F344/FEMALE, Route: ORAL, 375, 750 PPM IN DIET, 375, 750 PPM IN DIET) “inactive; negative”; (Species: RAT, Strain/Sex: F344/MALE, Route: ORAL, 375, 750 PPM IN DIET, 375, 750 PPM IN DIET) “inactive; negative”.
